Earlier results, collected in PMC9088800, “Expanded LUXendin Color Palette for GLP1R Detection and Visualization In Vitro and In Vivo” (JACS Au, 2022).

Conditions: phase III trials, combined with lifestyle interventions
Text: The glucagon-like peptide-1 receptor (GLP1R) is a class B G protein-coupled receptor involved in the regulation of glucose homeostasis, food intake, and inflammation.[1],[2] As such, GLP1R agonist (GLP1RA) therapy has become a mainstay of type-2 diabetes treatment during the past decade, with a number of drugs on the market based upon stabilized analogues of glucagon-like peptide-1.[3] Most recently, phase III trials of the third-generation semaglutide have shown a ∼15% reduction in body weight when combined with lifestyle interventions,[4] leading to the approval of GLP1RAs as the first nonsu ...

Which “Reduction in body weight” value does the source give for semaglutide here?
The value was roughly 15%.
